Measured values reported in US5210193A, “Piperazine derivatives” (American Cyanamid Company, priority 1990, dated 1993).
Converted amounts (≈) assume the structure as drawn.

What was measured:
Assay in all cases: in vitro antibacterial MIC, agar plate dilution
Assay type in all cases: cell-based
[1] = tested on: Serratia marcescens F 0-35; conditions: Serratia marcescens, F035, 18 h, 35° C., read-out: MIC
How it was run: (§1)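 Agar plate dilution on Mueller-Hinton agar, inoculum approximately 10^4 CFU per organism applied with a Steers replicator. MIC (mcg/ml) is the lowest compound concentration inhibiting visible growth after 18 hours at 35° C.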

[2] = tested on: Escherichia coli ATCC 25922; conditions: Escherichia coli, ATCC25922, 18 h, 35° C., read-out: MIC
How it was run: as §1

[3] = tested on: Acinetobacter calcoaceticus MOR 84-43; conditions: MOR8443, 18 hours, 35° C., read-out: MIC
How it was run: as §1

[4] = tested on: Streptococcus faecalis ATTC 29212; conditions: Enterococcus faecalis, ATTC29212, 18 hours, 35° C., read-out: MIC
How it was run: as §1

[5] = tested on: Staphylococcus Spp saprophiticus VGH 84-50; conditions: 18 hours, 35° C., read-out: MIC
How it was run: as §1

[6] = tested on: Morganella morganii VGH 84-11; conditions: VGH8411, 18 hours, 35° C., read-out: MIC
How it was run: as §1

[7] = tested on: Serratia marcescens K 84-18; conditions: Serratia marcescens, K8418, 18 h, 35° C., read-out: MIC
How it was run: as §1

[8] = tested on: Klebsiella pneumoniae AD; conditions: Klebsiella pneumoniae, 18 h, 35° C., read-out: MIC
How it was run: as §1

[9] = tested on: Staphylococcus epidermidis CMC 83-135; conditions: CMC83135, 18 hours, 35° C., read-out: MIC
How it was run: as §1

[10] = tested on: Morganella morganii CMC 84-37; conditions: Morganella morganii, CMC8437, 18 h, 35° C., read-out: MIC
How it was run: as §1

[11] = tested on: Streptococcus faecalis VGH 84-65; conditions: Enterococcus faecalis, VGH8465, 18 h, 35° C., read-out: MIC
How it was run: as §1

[12] = tested on: Klebsiella pneumoniae MOR 84-4; conditions: Klebsiella pneumoniae, MOR844, 18 h, 35° C., read-out: MIC
How it was run: as §1

[13] = tested on: Escherichia coli NAR 311; conditions: NAR311, 18 hours, 35° C., read-out: MIC
How it was run: as §1

[14] = tested on: Staphylococcus epidermidis IO 83-58; conditions: IO8358, 18 hours, 35° C., read-out: MIC
How it was run: as §1

[15] = tested on: Pseudomonas aeruginosa LL-1244; conditions: Pseudomonas aeruginosa, LL1244, 18 h, 35° C., read-out: MIC
How it was run: as §1

[16] = tested on: Staphylococcus aureus ATTC 29213; conditions: Staphylococcus aureus, ATTC29213, 18 h, 35° C., read-out: MIC
How it was run: as §1

[17] = tested on: Staphylococcus epidermidis VGH 84-40; conditions: VGH8440, 18 hours, 35° C., read-out: MIC
How it was run: as §1

[18] = tested on: Staphylococcus aureus VGH 84-46; conditions: Staphylococcus aureus, VGH8446, 18 h, 35° C., read-out: MIC
How it was run: as §1

[19] = tested on: Enterobacter aerogenes VGH 84-36; conditions: Klebsiella aerogenes, VGH8436, 18 hours, 35° C., read-out: MIC
How it was run: as §1

[20] = tested on: Escherichia coli CMC 84-16; conditions: Escherichia coli, CMC8416, 18 h, 35° C., read-out: MIC
How it was run: as §1

[21] = tested on: Klebsiella oxytoca MOR 84-28; conditions: MOR8428, 18 hours, 35° C.
How it was run: as §1

[22] = tested on: Staphylococcus aureus CMC 83-128; conditions: CMC83128, 18 hours, 35° C., read-out: MIC
How it was run: as §1

[23] = tested on: Enterobacter cloacae K 84-10; conditions: Enterobacter cloacae, K8410, 18 h, 35° C., read-out: MIC
How it was run: as §1

[24] = tested on: Staphylococcus aureus Smith; conditions: Staphylococcus aureus, 18 h, 35° C., read-out: MIC
How it was run: as §1

[25] = tested on: Escherichia coli CMC 84-11; conditions: Escherichia coli, CMC8411, 18 h, 35° C., read-out: MIC
How it was run: as §1

[26] = tested on: Staphylococcus aureus VGH 84-45; conditions: Staphylococcus aureus, VGH8445, 18 h, 35° C., read-out: MIC
How it was run: as §1

[27] = tested on: Proteus rettgeri CMC 84-41; conditions: Providencia rettgeri, CMC8441, 18 h, 35° C., read-out: MIC
How it was run: as §1

[28] = tested on: Enterobacter cloacae VGH 84-37; conditions: Enterobacter cloacae, VGH8437, 18 h, 35° C., read-out: MIC
How it was run: as §1

[29] = tested on: Pseudomonas aeruginosa VGH 84-4; conditions: Pseudomonas aeruginosa, VGH844, 18 h, 35° C., read-out: MIC
How it was run: as §1

[30] = tested on: Staphylococcus aureus CMC 83-127; conditions: Staphylococcus aureus, CMC83127, 18 h, 35° C., read-out: MIC
How it was run: as §1

[31] = tested on: Escherichia coli PRNT 311; conditions: PRNT311, 18 hours, 35° C., read-out: MIC
How it was run: as §1

Row | SMILES | MIC [1] [µg/mL] | MIC [2] [µg/mL] | MIC [3] [µg/mL] | MIC [4] [µg/mL] | MIC [5] [µg/mL] | MIC [6] [µg/mL] | MIC [7] [µg/mL] | MIC [8] [µg/mL] | MIC [9] [µg/mL] | MIC [10] [µg/mL] | MIC [11] [µg/mL] | MIC [12] [µg/mL] | MIC [13] [µg/mL] | MIC [14] [µg/mL] | MIC [15] [µg/mL] | MIC [16] [µg/mL] | MIC [19] [µg/mL] | MIC [20] [µg/mL] | MIC [21] [µg/mL] | MIC [22] [µg/mL] | also measured
1 | CCn1cc(C(=O)O)c(=O)c2cc(F)c(N3CCNC(c4ccc(C)s4)C3)cc21 (stereo not drawn) [Example 37, 1-Ethyl-6-fluoro-1,4-dihydro-7-[3-(5-methyl-2-thienyl)-1-piperazinyl]-4-oxo-3-quinolinecarboxylic acid] | 2 (≈ 4.81 µM) | 1 (≈ 2.41 µM) | 8 (≈ 19.3 µM) | 4 (≈ 9.63 µM) | 2 (≈ 4.81 µM) | 1 (≈ 2.41 µM) | 2 (≈ 4.81 µM) | 2 (≈ 4.81 µM) | 0.5 (≈ 1.2 µM) | 0.5 (≈ 1.2 µM) | 4 (≈ 9.63 µM) | 2 (≈ 4.81 µM) | 16 (≈ 38.5 µM) | 0.5 (≈ 1.2 µM) | 64 (≈ 154 µM) | 0.5 (≈ 1.2 µM) | 1 (≈ 2.41 µM) | 0.5 (≈ 1.2 µM) | 1 (≈ 2.41 µM) | 0.25 (≈ 0.602 µM) | MIC [17]: 0.25 µg/mL (≈ 0.602 µM); MIC [18]: 0.5 µg/mL (≈ 1.2 µM); MIC [23]: 1 µg/mL (≈ 2.41 µM); MIC [24]: 0.5 µg/mL (≈ 1.2 µM); MIC [25]: 1 µg/mL (≈ 2.41 µM); MIC [26]: 0.12 µg/mL (≈ 0.289 µM); MIC [27]: 1 µg/mL (≈ 2.41 µM); MIC [28]: 1 µg/mL (≈ 2.41 µM); MIC [29]: 16 µg/mL (≈ 38.5 µM); MIC [30]: 0.12 µg/mL (≈ 0.289 µM); MIC [31]: 2 µg/mL (≈ 4.81 µM)
2 | O=C(O)c1cn(-c2ccc(F)cc2)c2cc(N3CCNC(c4ccco4)C3)c(F)cc2c1=O (stereo not drawn) [Example 67, 6-Fluoro-1-(4-fluorophenyl)-7-[3-(2-furanyl)-1-piperazinyl]-1,4-dihydro-4-oxo-3-quinolinecarboxylic acid] | 2 (≈ 4.43 µM) | 0.12 (≈ 0.266 µM) | 0.12 (≈ 0.266 µM) | 0.5 (≈ 1.11 µM) | 0.25 (≈ 0.554 µM) | 1 (≈ 2.22 µM) | 1 (≈ 2.22 µM) | 0.25 (≈ 0.554 µM) | 0.06 (≈ 0.133 µM) | 1 (≈ 2.22 µM) | 1 (≈ 2.22 µM) | 0.5 (≈ 1.11 µM) | 2 (≈ 4.43 µM) | 0.06 (≈ 0.133 µM) | 4 (≈ 8.86 µM) | 0.06 (≈ 0.133 µM) | 1 (≈ 2.22 µM) | 0.12 (≈ 0.266 µM) | 0.12 (≈ 0.266 µM) | 0.06 (≈ 0.133 µM) | MIC [17]: 0.06 µg/mL (≈ 0.133 µM); MIC [18]: 0.03 µg/mL (≈ 0.0665 µM); MIC [23]: 0.25 µg/mL (≈ 0.554 µM); MIC [24]: 0.03 µg/mL (≈ 0.0665 µM); MIC [25]: 0.12 µg/mL (≈ 0.266 µM); MIC [26]: 0.03 µg/mL (≈ 0.0665 µM); MIC [27]: 1 µg/mL (≈ 2.22 µM); MIC [28]: 0.25 µg/mL (≈ 0.554 µM); MIC [30]: 0.03 µg/mL (≈ 0.0665 µM); MIC [31]: 0.25 µg/mL (≈ 0.554 µM)
3 | CCn1cc(C(=O)O)c(=O)c2c(F)c(F)c(N3CCSCC3)c(F)c21 [Example 89, 1-Ethyl-5,6,8-trifluoro-1,4-dihydro-4-oxo-7-(4-thiomorpholinyl)-3-quinolinecarboxylic acid] | 2 (≈ 5.37 µM) | 1 (≈ 2.69 µM) | 2 (≈ 5.37 µM) | 8 (≈ 21.5 µM) | 4 (≈ 10.7 µM) | 2 (≈ 5.37 µM) | 2 (≈ 5.37 µM) | 2 (≈ 5.37 µM) | 0.5 (≈ 1.34 µM) | 4 (≈ 10.7 µM) | 32 (≈ 85.9 µM) | 4 (≈ 10.7 µM) | 128 (≈ 344 µM) | 0.5 (≈ 1.34 µM) | 64 (≈ 172 µM) | 0.5 (≈ 1.34 µM) | 8 (≈ 21.5 µM) | 2 (≈ 5.37 µM) | 2 (≈ 5.37 µM) | 1 (≈ 2.69 µM) | MIC [23]: 2 µg/mL (≈ 5.37 µM); MIC [24]: 0.25 µg/mL (≈ 0.671 µM); MIC [25]: 1 µg/mL (≈ 2.69 µM); MIC [26]: 0.25 µg/mL (≈ 0.671 µM); MIC [27]: 4 µg/mL (≈ 10.7 µM); MIC [28]: 4 µg/mL (≈ 10.7 µM); MIC [29]: 32 µg/mL (≈ 85.9 µM); MIC [30]: 0.5 µg/mL (≈ 1.34 µM); MIC [31]: 2 µg/mL (≈ 5.37 µM)
4 | CN1CCN(c2cc3c(cc2F)c(=O)c(C(=O)O)cn3C2CC2)CC1c1ccsc1 (stereo not drawn) [Example 66, 1-Cyclopropyl-6-fluoro-1,4-dihydro-4-oxo-7-[4-methyl-3-(3-thienyl)-1-piperazinyl]-3-quinolinecarboxylic acid] | 2 (≈ 4.68 µM) | 0.12 (≈ 0.281 µM) | 8 (≈ 18.7 µM) | 0.5 (≈ 1.17 µM) | 0.06 (≈ 0.14 µM) | 1 (≈ 2.34 µM) | 2 (≈ 4.68 µM) | 0.25 (≈ 0.585 µM) | 0.06 (≈ 0.14 µM) | 0.5 (≈ 1.17 µM) | 0.25 (≈ 0.585 µM) | 0.5 (≈ 1.17 µM) | 0.5 (≈ 1.17 µM) | 0.06 (≈ 0.14 µM) | 16 (≈ 37.4 µM) | 0.25 (≈ 0.585 µM) | 2 (≈ 4.68 µM) | 0.06 (≈ 0.14 µM) | 0.12 (≈ 0.281 µM) | 0.03 (≈ 0.0702 µM) | MIC [17]: 0.06 µg/mL (≈ 0.14 µM); MIC [18]: 0.06 µg/mL (≈ 0.14 µM); MIC [23]: 0.12 µg/mL (≈ 0.281 µM); MIC [24]: 0.06 µg/mL (≈ 0.14 µM); MIC [25]: 0.12 µg/mL (≈ 0.281 µM); MIC [26]: 0.03 µg/mL (≈ 0.0702 µM); MIC [27]: 1 µg/mL (≈ 2.34 µM); MIC [28]: 0.25 µg/mL (≈ 0.585 µM); MIC [30]: 0.03 µg/mL (≈ 0.0702 µM); MIC [31]: 0.5 µg/mL (≈ 1.17 µM)
